Active and inactive are the calls of the source. For most assays here, no stated cut-off is given here; in the data, actives have a measured IC50 and inactives only a lower limit.

From ChEMBL document CHEMBL1201862, “PubChem BioAssay data set” (2004) come the findings set out here.

One test has as its target Coagulation factor XII (Homo sapiens, UniProt P00748). The format is functional.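 Further: activated factor XIIa alpha cleaving a fluorogenic AMC peptide substrate; inhibitor potency from loss of enzyme activity.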
Test [1] has as its target Voltage-dependent T-type calcium channel subunit alpha-1H (Homo sapiens, UniProt O95180). The experiment in a line: human CACNA1H calcium influx blockade – cell-based, synthetic library set 1, calcium flux (AID 493022). It counts as functional. (Calcium flux is commonly read through the fluorescence of an indicator in the cells.)
A further test has as its target Hexokinase (Trypanosoma brucei, UniProt Q38C41). The test is described as follows: Confirmation assay for inhibitors of Trypanosoma brucei hexokinase 1-Analogue-first series. [Related pubchem assays (depositor defined):AID1430, AID1632, AID2516, AID2560, AID2579, AID2600, AID449725, AID492951]. It counts as functional.
In test [2] the target is T1, Alkaline phosphatase, tissue-nonspecific isozyme (Homo sapiens, UniProt P05186).
T1 sequence (P05186 whole entry): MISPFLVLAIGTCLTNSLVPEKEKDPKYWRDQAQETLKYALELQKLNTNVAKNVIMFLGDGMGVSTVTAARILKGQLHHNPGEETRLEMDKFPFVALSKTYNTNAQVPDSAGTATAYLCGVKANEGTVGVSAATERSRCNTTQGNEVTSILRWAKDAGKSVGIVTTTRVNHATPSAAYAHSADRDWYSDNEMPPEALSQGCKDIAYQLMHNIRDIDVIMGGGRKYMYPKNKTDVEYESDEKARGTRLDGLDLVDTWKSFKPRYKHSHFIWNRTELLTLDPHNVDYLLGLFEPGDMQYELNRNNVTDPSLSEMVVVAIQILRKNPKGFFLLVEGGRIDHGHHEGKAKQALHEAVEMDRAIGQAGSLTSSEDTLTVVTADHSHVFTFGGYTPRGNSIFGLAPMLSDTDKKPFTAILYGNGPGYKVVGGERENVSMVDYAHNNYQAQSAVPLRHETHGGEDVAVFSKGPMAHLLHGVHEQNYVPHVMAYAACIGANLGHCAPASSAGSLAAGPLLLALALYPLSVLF
The test is described as follows: potency against alkaline phosphatase TNAP – biochemical, luminescent, dose response, SAR follow-up (AID 1056).

Test [3] has as its target Alkaline phosphatase, placental type (Homo sapiens, UniProt P05187). The test is described as follows: human placental alkaline phosphatase inhibition – biochemical, luminescence, confirmation (AID 1512). It counts as functional.

Chain of Alkaline phosphatase, placental type (P05187 whole entry): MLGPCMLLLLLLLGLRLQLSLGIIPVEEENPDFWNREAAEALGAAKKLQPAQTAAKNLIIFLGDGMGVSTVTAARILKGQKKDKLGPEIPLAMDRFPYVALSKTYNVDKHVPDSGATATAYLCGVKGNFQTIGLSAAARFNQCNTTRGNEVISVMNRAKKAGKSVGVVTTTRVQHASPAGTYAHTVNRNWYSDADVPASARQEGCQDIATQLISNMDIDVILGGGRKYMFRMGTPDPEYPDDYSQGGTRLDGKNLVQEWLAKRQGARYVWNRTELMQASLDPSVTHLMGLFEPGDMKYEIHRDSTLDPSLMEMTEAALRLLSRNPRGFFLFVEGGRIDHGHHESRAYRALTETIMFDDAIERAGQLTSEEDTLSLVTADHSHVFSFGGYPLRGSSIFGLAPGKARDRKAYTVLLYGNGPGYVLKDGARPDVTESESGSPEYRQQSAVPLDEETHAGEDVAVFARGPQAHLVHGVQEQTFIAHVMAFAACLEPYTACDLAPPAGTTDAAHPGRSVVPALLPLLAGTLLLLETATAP
Chain of Coagulation factor XII (P00748 20-372 limits assumed): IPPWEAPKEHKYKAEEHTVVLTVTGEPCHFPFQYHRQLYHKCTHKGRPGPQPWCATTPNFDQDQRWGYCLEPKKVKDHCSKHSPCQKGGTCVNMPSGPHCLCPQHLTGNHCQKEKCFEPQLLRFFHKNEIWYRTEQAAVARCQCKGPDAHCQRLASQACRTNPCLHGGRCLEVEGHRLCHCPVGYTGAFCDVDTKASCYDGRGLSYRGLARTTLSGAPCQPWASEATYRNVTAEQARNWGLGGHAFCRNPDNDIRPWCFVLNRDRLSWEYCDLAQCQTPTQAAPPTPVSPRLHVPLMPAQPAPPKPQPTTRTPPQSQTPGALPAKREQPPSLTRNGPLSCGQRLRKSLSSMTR
Chain of Coagulation factor XII (P00748 373-615 limits assumed): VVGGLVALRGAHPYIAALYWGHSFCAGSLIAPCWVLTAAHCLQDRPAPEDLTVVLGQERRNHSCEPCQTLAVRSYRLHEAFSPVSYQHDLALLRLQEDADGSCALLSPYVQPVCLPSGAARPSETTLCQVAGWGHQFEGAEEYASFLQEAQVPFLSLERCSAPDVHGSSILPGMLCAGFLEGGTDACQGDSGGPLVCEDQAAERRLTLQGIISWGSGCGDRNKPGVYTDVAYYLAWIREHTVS
Chain of Voltage-dependent T-type calcium channel subunit alpha-1H (O95180 whole entry): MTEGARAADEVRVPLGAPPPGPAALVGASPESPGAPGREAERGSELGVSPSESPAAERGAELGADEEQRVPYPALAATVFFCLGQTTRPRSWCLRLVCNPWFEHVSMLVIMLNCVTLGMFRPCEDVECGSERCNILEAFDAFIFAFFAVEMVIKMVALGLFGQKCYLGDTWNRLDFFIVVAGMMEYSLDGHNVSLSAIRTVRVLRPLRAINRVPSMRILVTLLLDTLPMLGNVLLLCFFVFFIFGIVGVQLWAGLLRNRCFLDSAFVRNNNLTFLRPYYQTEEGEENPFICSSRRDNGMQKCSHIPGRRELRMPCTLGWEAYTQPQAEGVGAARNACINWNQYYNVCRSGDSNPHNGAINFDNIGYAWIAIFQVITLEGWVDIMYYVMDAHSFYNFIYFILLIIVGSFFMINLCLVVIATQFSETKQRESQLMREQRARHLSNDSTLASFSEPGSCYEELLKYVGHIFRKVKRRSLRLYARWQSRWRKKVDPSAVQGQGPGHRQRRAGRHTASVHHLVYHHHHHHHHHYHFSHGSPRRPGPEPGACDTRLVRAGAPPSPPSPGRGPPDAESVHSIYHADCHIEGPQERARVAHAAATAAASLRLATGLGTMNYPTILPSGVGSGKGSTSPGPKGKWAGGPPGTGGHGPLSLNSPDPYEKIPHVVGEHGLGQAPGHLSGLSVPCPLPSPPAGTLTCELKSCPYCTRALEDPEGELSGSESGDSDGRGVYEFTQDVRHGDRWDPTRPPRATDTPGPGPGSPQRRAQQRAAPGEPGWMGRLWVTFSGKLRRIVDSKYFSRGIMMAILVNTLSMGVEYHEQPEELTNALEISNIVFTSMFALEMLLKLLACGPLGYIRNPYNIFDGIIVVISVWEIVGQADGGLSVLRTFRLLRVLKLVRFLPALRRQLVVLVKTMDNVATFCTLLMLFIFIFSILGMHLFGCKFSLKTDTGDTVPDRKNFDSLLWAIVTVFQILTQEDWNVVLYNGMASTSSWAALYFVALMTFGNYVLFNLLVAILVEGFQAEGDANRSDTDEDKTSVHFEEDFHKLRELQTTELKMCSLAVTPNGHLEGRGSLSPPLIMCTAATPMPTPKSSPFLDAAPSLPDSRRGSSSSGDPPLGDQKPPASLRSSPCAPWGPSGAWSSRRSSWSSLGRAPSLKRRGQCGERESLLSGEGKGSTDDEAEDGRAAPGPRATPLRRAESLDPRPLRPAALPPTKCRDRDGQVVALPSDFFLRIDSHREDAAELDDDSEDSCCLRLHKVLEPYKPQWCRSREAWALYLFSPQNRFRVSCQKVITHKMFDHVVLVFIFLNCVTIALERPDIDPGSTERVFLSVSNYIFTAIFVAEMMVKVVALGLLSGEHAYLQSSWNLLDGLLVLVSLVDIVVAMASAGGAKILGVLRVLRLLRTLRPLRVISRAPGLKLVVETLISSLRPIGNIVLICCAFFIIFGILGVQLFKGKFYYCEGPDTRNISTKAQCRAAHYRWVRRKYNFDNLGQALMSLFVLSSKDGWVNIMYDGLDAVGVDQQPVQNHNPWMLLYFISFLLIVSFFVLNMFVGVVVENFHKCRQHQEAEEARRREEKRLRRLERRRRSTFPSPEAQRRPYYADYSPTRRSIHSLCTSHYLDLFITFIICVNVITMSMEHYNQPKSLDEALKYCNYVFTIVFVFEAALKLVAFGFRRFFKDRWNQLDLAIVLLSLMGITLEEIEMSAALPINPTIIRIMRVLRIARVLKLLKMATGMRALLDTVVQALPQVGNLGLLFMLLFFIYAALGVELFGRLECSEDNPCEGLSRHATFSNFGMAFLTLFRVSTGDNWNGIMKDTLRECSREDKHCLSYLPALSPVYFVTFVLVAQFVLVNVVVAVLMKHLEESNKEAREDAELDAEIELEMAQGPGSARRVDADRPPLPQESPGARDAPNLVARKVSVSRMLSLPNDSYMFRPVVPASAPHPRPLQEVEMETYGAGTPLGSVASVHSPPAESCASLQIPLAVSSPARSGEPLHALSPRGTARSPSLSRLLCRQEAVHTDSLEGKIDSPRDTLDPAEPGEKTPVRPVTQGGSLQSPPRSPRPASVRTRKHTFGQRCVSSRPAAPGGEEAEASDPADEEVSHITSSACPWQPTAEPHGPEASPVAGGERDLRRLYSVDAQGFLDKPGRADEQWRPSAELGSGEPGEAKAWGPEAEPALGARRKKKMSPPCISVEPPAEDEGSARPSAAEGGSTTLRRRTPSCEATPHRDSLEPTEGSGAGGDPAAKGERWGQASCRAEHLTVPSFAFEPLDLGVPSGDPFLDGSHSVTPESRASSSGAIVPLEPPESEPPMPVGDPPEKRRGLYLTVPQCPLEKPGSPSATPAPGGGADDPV
Chain of Hexokinase (Q38C41 whole entry): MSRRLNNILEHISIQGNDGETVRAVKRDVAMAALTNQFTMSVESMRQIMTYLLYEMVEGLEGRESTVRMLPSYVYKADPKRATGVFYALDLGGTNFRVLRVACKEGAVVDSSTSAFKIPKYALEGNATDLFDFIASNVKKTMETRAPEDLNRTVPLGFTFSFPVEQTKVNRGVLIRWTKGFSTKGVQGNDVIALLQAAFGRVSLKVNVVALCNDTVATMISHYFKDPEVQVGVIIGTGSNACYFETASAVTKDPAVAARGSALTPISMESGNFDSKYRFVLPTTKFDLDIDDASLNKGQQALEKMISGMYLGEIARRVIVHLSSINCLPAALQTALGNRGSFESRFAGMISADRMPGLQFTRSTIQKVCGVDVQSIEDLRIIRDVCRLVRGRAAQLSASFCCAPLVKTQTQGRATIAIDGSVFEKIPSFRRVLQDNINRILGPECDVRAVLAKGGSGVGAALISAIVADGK

Usually IC50 stands for the concentration needed to halve the response being measured. Take `c1ccc(-n2cccc2)c(N2CCCCC2)c1`: the IC50 on Coagulation factor XII is > 50 µM (inactive).

In general, EC50 refers to the concentration that produces a half-maximal response. Regarding `O=C(COc1ccccc1Cl)Nc1nnc(-c2ccc3c(c2)OCCO3)o1`, the EC50 in test [1] was 3.1 µM (active).

For the compound `O=C(COc1ccccc1F)Nc1nnc(-c2ccc3c(c2)CCCC3)o1`, the EC50 in test [1] was 1.7 µM (active).

As to `COc1ccc(C(=O)Nc2cccc(Cl)c2)cc1`, the IC50 on Hexokinase was > 25 µM (inactive).

Consider `CCCCN1C(=O)/C(=N\Nc2ccccc2Cl)c2ccccc21`, for which the figures for the IC50 in test [2] and in test [3] were > 100 µM (inactive) and 91.6 µM (active), respectively.

Consider `C/C(Cc1ccccc1)=N\NC(=O)CNC(=O)c1ccc(Cl)cc1Cl`, for which, at Coagulation factor XII, the IC50 is > 50 µM (inactive).

Consider `O=C(CSc1nc2ccccc2[nH]1)c1ccc(O)c(O)c1`, for which the IC50 was 5.44 µM (active) in test [2] and 4.79 µM (active) in test [3].
